Entries after “also recorded” stand apart in the source; their conditions may differ.
Assays:
[1] = system: human renal carcinoma, gastric cancer, breast cancer, and lung cancer xenografts; conditions: cited from earlier work
[2] = Phase I dose escalation: safety and tolerability (DLT, MTD, adverse events, NCI-CTCAE 4.03)

CNC(=O)c1cccc(-c2ccc3c(N4C5CCC4COC5)nc(N4CCOC[C@@H]4C)nc3n2)c1 [LXI-15029]
dose dependence of antitumor activity ([1]; dose range of 5–40 mg/kg, in vivo preclinical data): dose-dependent
antitumor activity in xenograft models ([1]; tumors with abnormal regulation in the mTOR signaling pathway, ref [25], [26]): selective antitumor effect; also recorded: selective antitumor activity
Patients with any TEAE ([2]; 10 mg BID (n = 3)): 3 (100.0) n (%)
Patients with any TEAE, maximum CTCAE Grade 1 ([2]; 10 mg BID (n = 3)): 3 (100.0) n (%)
Patients with any TEAE, maximum CTCAE Grade 2 ([2]; 10 mg BID (n = 3)): 0 n (%)
Patients with any TEAE, maximum CTCAE Grade 3 ([2]; 10 mg BID (n = 3)): 0 n (%)
≥ 10% TRAE: ALT increased ([2]; 10 mg BID (n = 3)): 0 n (%)
≥ 10% TRAE: AST increased ([2]; 10 mg BID (n = 3)): 0 n (%)
≥ 10% TRAE: Decreased appetite ([2]; 10 mg BID (n = 3)): 1 (33.3) n (%)
≥ 10% TRAE: Diarrhea ([2]; 10 mg BID (n = 3)): 0 n (%)
≥ 10% TRAE: ECG QT prolonged ([2]; 10 mg BID (n = 3)): 0 n (%)
≥ 10% TRAE: Fatigue ([2]; 10 mg BID (n = 3)): 0 n (%)
≥ 10% TRAE: GGT increased ([2]; 10 mg BID (n = 3)): 0 n (%)
≥ 10% TRAE: Hypercholesterolemia ([2]; 10 mg BID (n = 3)): 0 n (%)
≥ 10% TRAE: Hypertriglyceridemia ([2]; 10 mg BID (n = 3)): 0 n (%)
≥ 10% TRAE: LDL increased ([2]; 10 mg BID (n = 3)): 0 n (%)
≥ 10% TRAE: Leukocytopenia ([2]; 10 mg BID (n = 3)): 0 n (%)
≥ 10% TRAE: Neutropenia ([2]; 10 mg BID (n = 3)): 0 n (%)
≥ 10% TRAE: Sinus bradycardia ([2]; 10 mg BID (n = 3)): 0 n (%)
Patients with any TEAE ([2]; 20 mg BID (n = 3)): 3 (100.0) n (%)
Patients with any TEAE, maximum CTCAE Grade 1 ([2]; 20 mg BID (n = 3)): 2 (66.7) n (%)
Patients with any TEAE, maximum CTCAE Grade 2 ([2]; 20 mg BID (n = 3)): 1 (33.3) n (%)
Patients with any TEAE, maximum CTCAE Grade 3 ([2]; 20 mg BID (n = 3)): 0 n (%)
≥ 10% TRAE: ALT increased ([2]; 20 mg BID (n = 3)): 1 (33.3) n (%)
≥ 10% TRAE: AST increased ([2]; 20 mg BID (n = 3)): 0 n (%)
≥ 10% TRAE: Decreased appetite ([2]; 20 mg BID (n = 3)): 0 n (%)
≥ 10% TRAE: Diarrhea ([2]; 20 mg BID (n = 3)): 0 n (%)
≥ 10% TRAE: ECG QT prolonged ([2]; 20 mg BID (n = 3)): 0 n (%)
≥ 10% TRAE: Fatigue ([2]; 20 mg BID (n = 3)): 1 (33.3) n (%)
≥ 10% TRAE: GGT increased ([2]; 20 mg BID (n = 3)): 1 (33.3) n (%)
≥ 10% TRAE: Hypercholesterolemia ([2]; 20 mg BID (n = 3)): 0 n (%)
≥ 10% TRAE: Hypertriglyceridemia ([2]; 20 mg BID (n = 3)): 1 (33.3) n (%)
≥ 10% TRAE: LDL increased ([2]; 20 mg BID (n = 3)): 1 (33.3) n (%)
≥ 10% TRAE: Leukocytopenia ([2]; 20 mg BID (n = 3)): 1 (33.3) n (%)
≥ 10% TRAE: Neutropenia ([2]; 20 mg BID (n = 3)): 0 n (%)
≥ 10% TRAE: Sinus bradycardia ([2]; 20 mg BID (n = 3)): 1 (33.3) n (%)
Patients with any TEAE ([2]; 40 mg BID (n = 3)): 2 (66.7) n (%)
Patients with any TEAE, maximum CTCAE Grade 1 ([2]; 40 mg BID (n = 3)): 1 (33.3) n (%)
Patients with any TEAE, maximum CTCAE Grade 2 ([2]; 40 mg BID (n = 3)): 1 (33.3) n (%)
Patients with any TEAE, maximum CTCAE Grade 3 ([2]; 40 mg BID (n = 3)): 0 n (%)
≥ 10% TRAE: ALT increased ([2]; 40 mg BID (n = 3)): 0 n (%)
≥ 10% TRAE: AST increased ([2]; 40 mg BID (n = 3)): 0 n (%)
≥ 10% TRAE: Decreased appetite ([2]; 40 mg BID (n = 3)): 0 n (%)
≥ 10% TRAE: Diarrhea ([2]; 40 mg BID (n = 3)): 0 n (%)
≥ 10% TRAE: ECG QT prolonged ([2]; 40 mg BID (n = 3)): 0 n (%)
≥ 10% TRAE: Fatigue ([2]; 40 mg BID (n = 3)): 0 n (%)
≥ 10% TRAE: GGT increased ([2]; 40 mg BID (n = 3)): 0 n (%)
≥ 10% TRAE: Hypercholesterolemia ([2]; 40 mg BID (n = 3)): 0 n (%)
≥ 10% TRAE: Hypertriglyceridemia ([2]; 40 mg BID (n = 3)): 1 (33.3) n (%)
≥ 10% TRAE: LDL increased ([2]; 40 mg BID (n = 3)): 1 (33.3) n (%)
≥ 10% TRAE: Leukocytopenia ([2]; 40 mg BID (n = 3)): 2 (66.7) n (%)
≥ 10% TRAE: Neutropenia ([2]; 40 mg BID (n = 3)): 0 n (%)
≥ 10% TRAE: Sinus bradycardia ([2]; 40 mg BID (n = 3)): 0 n (%)
Patients with any TEAE ([2]; 60 mg BID (n = 4)): 3 (75.0) n (%)
Patients with any TEAE, maximum CTCAE Grade 1 ([2]; 60 mg BID (n = 4)): 1 (25.0) n (%)
Patients with any TEAE, maximum CTCAE Grade 2 ([2]; 60 mg BID (n = 4)): 2 (50.0) n (%)
Patients with any TEAE, maximum CTCAE Grade 3 ([2]; 60 mg BID (n = 4)): 0 n (%)
≥ 10% TRAE: ALT increased ([2]; 60 mg BID (n = 4)): 1 (25.0) n (%)
≥ 10% TRAE: AST increased ([2]; 60 mg BID (n = 4)): 1 (25.0) n (%)
≥ 10% TRAE: Decreased appetite ([2]; 60 mg BID (n = 4)): 0 n (%)
≥ 10% TRAE: Diarrhea ([2]; 60 mg BID (n = 4)): 2 (50.0) n (%)
≥ 10% TRAE: ECG QT prolonged ([2]; 60 mg BID (n = 4)): 2 (50.0) n (%)
≥ 10% TRAE: Fatigue ([2]; 60 mg BID (n = 4)): 1 (25.0) n (%)
≥ 10% TRAE: GGT increased ([2]; 60 mg BID (n = 4)): 1 (25.0) n (%)
≥ 10% TRAE: Hypercholesterolemia ([2]; 60 mg BID (n = 4)): 3 (75.0) n (%)
≥ 10% TRAE: Hypertriglyceridemia ([2]; 60 mg BID (n = 4)): 2 (50.0) n (%)
≥ 10% TRAE: LDL increased ([2]; 60 mg BID (n = 4)): 1 (25.0) n (%)
≥ 10% TRAE: Leukocytopenia ([2]; 60 mg BID (n = 4)): 1 (25.0) n (%)
≥ 10% TRAE: Neutropenia ([2]; 60 mg BID (n = 4)): 1 (25.0) n (%)
≥ 10% TRAE: Sinus bradycardia ([2]; 60 mg BID (n = 4)): 1 (25.0) n (%)
Patients with any TEAE ([2]; 80 mg BID (n = 4)): 4 (100.0) n (%)
Patients with any TEAE, maximum CTCAE Grade 1 ([2]; 80 mg BID (n = 4)): 3 (75.0) n (%)
Patients with any TEAE, maximum CTCAE Grade 2 ([2]; 80 mg BID (n = 4)): 1 (25.0) n (%)
Patients with any TEAE, maximum CTCAE Grade 3 ([2]; 80 mg BID (n = 4)): 0 n (%)
≥ 10% TRAE: ALT increased ([2]; 80 mg BID (n = 4)): 0 n (%)
≥ 10% TRAE: AST increased ([2]; 80 mg BID (n = 4)): 0 n (%)
≥ 10% TRAE: Decreased appetite ([2]; 80 mg BID (n = 4)): 1 (25.0) n (%)
≥ 10% TRAE: Diarrhea ([2]; 80 mg BID (n = 4)): 2 (50.0) n (%)
≥ 10% TRAE: ECG QT prolonged ([2]; 80 mg BID (n = 4)): 1 (25.0) n (%)
≥ 10% TRAE: Fatigue ([2]; 80 mg BID (n = 4)): 2 (50.0) n (%)
